Experimental data taken from PubChem BioAssay AID330 (DTP/NCI, 2004).
Where “and” joins values, the source holds several entries; their conditions need not be identical. Identical values can stand only once. Toxic doses and inconclusive results are not listed.

System: P388 leukemia ip, CD2F1 mice, survival T/C
Experiment: NCI In Vivo Anticancer Drug Screen. Data for tumor model P388 Leukemia (intraperitoneal) in CD2F1 (CDF1) mice
Conditions: endpoint: median survival time, higher = longer survival
Outline: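 Mice carrying the transplanted tumor received test compound or vehicle. Survival was recorded in each group, and the value is the treated-group measurement divided by that of the vehicle-treated control group.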

[1] = dose: 100.0 mg/kg/injection, schedule: Q01DX009 (ip), vehicle: saline with Tween-80
[2] = dose: 50.0 mg/kg/injection, schedule: Q01DX005 (ip), vehicle: Klucel (hydroxypropylcellulose) (HPC)
[3] = dose: 100.0 mg/kg/injection, schedule: Q01DX005 (ip), vehicle: Klucel (hydroxypropylcellulose) (HPC)
[4] = dose: 200.0 mg/kg/injection, schedule: Q01DX005 (ip), vehicle: Klucel (hydroxypropylcellulose) (HPC)
[5] = dose: 12.5 mg/kg/injection, schedule: Q01DX005 (ip), vehicle: saline with Tween-80
[6] = dose: 25.0 mg/kg/injection, schedule: Q01DX005 (ip), vehicle: saline with Tween-80
[7] = dose: 50.0 mg/kg/injection, schedule: Q01DX005 (ip), vehicle: saline with Tween-80
[8] = dose: 50.0 mg/kg/injection, schedule: Q01DX009 (ip), vehicle: saline with Tween-80
[9] = dose: 200.0 mg/kg/injection, schedule: Q01DX009 (ip), vehicle: saline with Tween-80
[10] = dose: 60.0 mg/kg/injection, schedule: Q01DX005 (ip), vehicle: saline with Tween-80
[11] = dose: 120.0 mg/kg/injection, schedule: Q01DX005 (ip), vehicle: saline with Tween-80
[12] = dose: 240.0 mg/kg/injection, schedule: Q01DX005 (ip), vehicle: saline with Tween-80
[13] = dose: 6.25 mg/kg/injection, schedule: Q04DX002 (ip), vehicle: saline
[14] = dose: 12.5 mg/kg/injection, schedule: Q04DX002 (ip), vehicle: saline
[15] = dose: 50.0 mg/kg/injection, schedule: Q01DX005 (ip), vehicle: saline
[16] = dose: 100.0 mg/kg/injection, schedule: Q01DX005 (ip), vehicle: saline

SMILES: O=S(=O)(CCl)OCCCl
- T/C (dose: 25.0 mg/kg/injection, schedule: Q01DX009 (ip), vehicle: saline with Tween-80): 120 % of control
- T/C (dose: 75.0 mg/kg/injection, schedule: Q01DX009 (ip), vehicle: saline with Tween-80): 170 % of control
- T/C [1]: 218 % of control

SMILES: C/C=C/CC(/C(C)=N\[N+](C)(C)C)c1ccccc1 (stereo unspecified)
- T/C (dose: 100.0 mg/kg/injection, schedule: Q04DX003 (ip), vehicle: saline): 107 % of control
- T/C (dose: 200.0 mg/kg/injection, schedule: Q04DX003 (ip), vehicle: saline): 97 % of control
- T/C (dose: 400.0 mg/kg/injection, schedule: Q04DX003 (ip), vehicle: saline): 99 % of control

SMILES: Nc1cccc(C(=O)Nc2ccc3c(O)c(N=Nc4ccccc4)c(S(=O)(=O)O)cc3c2)c1
- T/C [2]: 103 % of control
- T/C [3]: 107 % of control
- T/C [4]: 103 % of control

SMILES: CC[N+](CC)=c1ccc2nc3c(cc(NCc4ccccc4)c4ccccc43)oc-2c1
- T/C [5]: 103 % of control
- T/C [6]: 100 % of control
- T/C [7]: 105 % of control and 107 % of control

SMILES: C[Si](C)(C)n1nnn(-c2ccccc2)c1=O
- T/C [8]: 99 % of control and 116 % of control
- T/C [1]: 112 % of control
- T/C [9]: 106 % of control

SMILES: CC12CCC3C(CCC4C(C)(C)C(O)CCC34C)(C1)OC2CO (stereo unspecified)
- T/C (dose: 2.25 mg/kg/injection, schedule: Q01DX009 (ip), vehicle: Klucel (hydroxypropylcellulose) (HPC)): 104 % of control
- T/C (dose: 4.5 mg/kg/injection, schedule: Q01DX009 (ip), vehicle: Klucel (hydroxypropylcellulose) (HPC)): 108 % of control
- T/C (dose: 9.0 mg/kg/injection, schedule: Q01DX009 (ip), vehicle: Klucel (hydroxypropylcellulose) (HPC)): 104 % of control
- T/C (dose: 18.0 mg/kg/injection, schedule: Q01DX009 (ip), vehicle: Klucel (hydroxypropylcellulose) (HPC)): 118 % of control

SMILES: NC(N)=NCCCC(N)C(=O)CC(Cc1ccc(O)cc1)C(=O)O (stereo unspecified)
- T/C (dose: 7.5 mg/kg/injection, schedule: Q01DX005 (ip), vehicle: water): 98 % of control
- T/C (dose: 15.0 mg/kg/injection, schedule: Q01DX005 (ip), vehicle: water): 98 % of control
- T/C (dose: 30.0 mg/kg/injection, schedule: Q01DX005 (ip), vehicle: water): 95 % of control
- T/C (dose: 60.0 mg/kg/injection, schedule: Q01DX005 (ip), vehicle: water): 98 % of control

SMILES: Cc1ccc(N=C(c2ccccc2)C2C(=O)c3ccccc3C2=O)cc1
- T/C [2]: 97 % of control
- T/C [3]: 97 % of control
- T/C [4]: 94 % of control

SMILES: Cn1cnc2cc(N3CCCCC3)c(N)cc2c1=O
- T/C (dose: 100.0 mg/kg/injection, schedule: Q04DX003 (ip), vehicle: Klucel (hydroxypropylcellulose) (HPC)): 107 % of control
- T/C (dose: 200.0 mg/kg/injection, schedule: Q04DX003 (ip), vehicle: Klucel (hydroxypropylcellulose) (HPC)): 99 % of control
- T/C (dose: 400.0 mg/kg/injection, schedule: Q04DX003 (ip), vehicle: Klucel (hydroxypropylcellulose) (HPC)): 102 % of control

SMILES: CCC(=O)Nc1nnc(SCCCCCCCCCCSc2nnc(NC(=O)CC)s2)s1
- T/C [2]: 89 % of control
- T/C [3]: 91 % of control
- T/C [4]: 87 % of control

SMILES: CC1(C)CC(=O)C=C(n2ccccc2=O)C1
- T/C [10]: 97 % of control
- T/C [11]: 102 % of control
- T/C [12]: 97 % of control

SMILES: Cc1ccccc1NC(=O)C(=O)C(C#N)c1c(Cl)cccc1Cl (stereo unspecified)
- T/C [10]: 114 % of control
- T/C [11]: 100 % of control
- T/C [12]: 99 % of control

SMILES: N#CC(c1ccc2c(c1)OCO2)N1CCCC1 (stereo unspecified)
- T/C (dose: 12.5 mg/kg/injection, schedule: Q01DX001 (ip), vehicle: Klucel (hydroxypropylcellulose) (HPC)): 108 % of control
- T/C (dose: 25.0 mg/kg/injection, schedule: Q01DX001 (ip), vehicle: Klucel (hydroxypropylcellulose) (HPC)): 108 % of control
- T/C (dose: 100.0 mg/kg/injection, schedule: Q01DX001 (ip), vehicle: Klucel (hydroxypropylcellulose) (HPC)): 100 % of control
- T/C (dose: 400.0 mg/kg/injection, schedule: Q01DX001 (ip), vehicle: Klucel (hydroxypropylcellulose) (HPC)): 99 % of control

SMILES: CC=C1CN(C)C2Cc3c([nH]c4ccccc34)C(=O)CC1C2C(=O)OC (stereo unspecified)
- T/C (dose: 7.5 mg/kg/injection, schedule: Q01DX009 (ip), vehicle: saline + alcohol): 107 % of control
- T/C (dose: 15.0 mg/kg/injection, schedule: Q01DX009 (ip), vehicle: saline + alcohol): 116 % of control
- T/C (dose: 30.0 mg/kg/injection, schedule: Q01DX009 (ip), vehicle: saline + alcohol): 106 % of control

SMILES: O=C1OCCc2c1[nH]c1ccccc21
- T/C (dose: 100.0 mg/kg/injection, schedule: Q04DX002 (ip), vehicle: saline with Tween-80): 100 % of control
- T/C (dose: 200.0 mg/kg/injection, schedule: Q04DX002 (ip), vehicle: saline with Tween-80): 100 % of control

SMILES: O=C1c2cccc3cccc(c23)C(=O)N1CCCCCCCCN1C(=O)c2cccc3cccc(c23)C1=O
- T/C [7]: 96 % of control
- T/C (dose: 100.0 mg/kg/injection, schedule: Q01DX005 (ip), vehicle: saline with Tween-80): 95 % of control
- T/C (dose: 200.0 mg/kg/injection, schedule: Q01DX005 (ip), vehicle: saline with Tween-80): 87 % of control

SMILES: O=C1/C(=c2\c3ccccc3n3c(=O)c4ccccc4nc23)Nc2ccccc21
- T/C (dose: 25.0 mg/kg/injection, schedule: Q01DX005 (ip), vehicle: Klucel (hydroxypropylcellulose) (HPC)): 92 % of control
- T/C [2]: 91 % of control
- T/C [3]: 91 % of control

SMILES: CCCNC(=S)NN1C2CSC1CS2
- T/C (dose: 50.0 mg/kg/injection, schedule: Q01DX009 (ip), vehicle: saline): 89 % of control
- T/C (dose: 100.0 mg/kg/injection, schedule: Q01DX009 (ip), vehicle: saline): 99 % of control

SMILES: CC1(C)N=C(N)N=C(N)N1c1cccc(CCCCc2cccc(S(=O)(=O)F)c2)c1
- T/C (dose: 3.9 mg/kg/injection, schedule: Q04DX003 (ip), vehicle: saline with Tween-80): 122 % of control
- T/C (dose: 25.0 mg/kg/injection, schedule: Q04DX003 (ip), vehicle: saline with Tween-80): 95 % of control
- T/C (dose: 50.0 mg/kg/injection, schedule: Q04DX003 (ip), vehicle: saline with Tween-80): 90 % of control

SMILES: c1cnc2n[se]nc2c1
- T/C [13]: 113 % of control
- T/C [14]: 97 % of control

SMILES: O=[N+]([O-])O.O=[N+]([O-])O.[NH-]C1CCCC1[NH-].[Pt+2] (stereo unspecified)
- T/C [13]: 180 % of control
- T/C [14]: 180 % of control
- T/C (dose: 12.5 mg/kg/injection, schedule: Q04DX002 (ip), vehicle: suspension in saline): 184 % of control
- T/C (dose: 25.0 mg/kg/injection, schedule: Q04DX002 (ip), vehicle: saline): 197 % of control
- T/C (dose: 25.0 mg/kg/injection, schedule: Q04DX002 (ip), vehicle: suspension in saline): 202 % of control

SMILES: Cc1ccc(N=C2N=C(Nc3ccc(C)cn3)c3ccccc32)nc1
- T/C [8]: 92 % of control
- T/C [1]: 91 % of control
- T/C [9]: 96 % of control

SMILES: COc1cc(C(O)(CCN2CCOCC2)c2ccc3c(c2)OCO3)cc(OC)c1OC (stereo unspecified)
- T/C [2]: 91 % of control
- T/C [3]: 87 % of control

SMILES: O=C1NN2CCN=C2c2ccccc21
- T/C [10]: 100 % of control
- T/C [11]: 104 % of control
- T/C [12]: 103 % of control

SMILES: CC1OCN2C(C)CCCC12 (stereo unspecified)
- T/C [15]: 108 % of control
- T/C [16]: 106 % of control

SMILES: CC(C)NCC(O)CC(c1ccccc1)c1ccccc1 (stereo unspecified)
- T/C [8]: 95 % of control
- T/C [1]: 111 % of control

SMILES: Cc1cc2c(cc1C)C(=O)c1c(C)ccc(C)c1C2=O
- T/C [5]: 99 % of control
- T/C [6]: 99 % of control
- T/C [7]: 86 % of control and 89 % of control

SMILES: CC1=C(O)c2[nH]c(Cl)c(C=O)c2C(=O)C1=O
- T/C (dose: 100.0 mg/kg/injection, schedule: Q01DX001 (ip), vehicle: saline with Tween-80): 100 % of control
- T/C (dose: 200.0 mg/kg/injection, schedule: Q01DX001 (ip), vehicle: saline with Tween-80): 98 % of control
- T/C (dose: 400.0 mg/kg/injection, schedule: Q01DX001 (ip), vehicle: saline with Tween-80): 98 % of control

SMILES: COC(=O)c1nnn(-c2ccc(C)c(C)c2)c1N
- T/C [10]: 90 % of control
- T/C [11]: 93 % of control
- T/C [12]: 94 % of control

SMILES: Nc1ccc(C(=O)Nc2ccc3cc(S(=O)(=O)O)cc(S(=O)(=O)O)c3c2)cc1
- T/C [15]: 103 % of control
- T/C [16]: 99 % of control
- T/C (dose: 200.0 mg/kg/injection, schedule: Q01DX005 (ip), vehicle: saline): 100 % of control

SMILES: Cc1cccc(CNc2cccc(C)n2)n1
- T/C [15]: 105 % of control
- T/C [16]: 97 % of control
